# From patent US9862730B2, “Imidazothiadiazole derivatives as protease activated receptor 4 (PAR4) inhibitors for treating platelet aggregation” (BRISTOL-MYERS SQUIBB COMPANY, priority 2012, dated 2018)
# Tests used:
# PAR4 [1] = biological target: T1, PAR4 (Homo sapiens (Human), UniProt Q96RI0); assay: Gamma thrombin induced platelet aggregation assay in PRP (PRP assay); type: cell-based
# Source text: The compounds of the current invention can be tested in vitro for their ability to inhibit platelet aggregation induced by gamma-thrombin as shown in Example C. Gamma-thrombin, a proteolytic product of alpha-thrombin which no longer interacts with PAR1, selectively cleaves and activates PAR4 (Soslau, G. et al., “Unique pathway of thrombin-induced platelet aggregation mediated by glycoprotein Ib”, J. Biol. Chem., 276:21173-21183 (2001)). Platelet aggregation can be monitored in a 96-well microplate aggregation assay format or using standard platelet aggregometer. The aggregation assay can also be employed to test the selectivity of the compound for inhibiting platelet aggregation induced by PAR4 agonist peptides, PAR1 agonist peptide, ADP, or thromboxane analogue U46619.
# The platelet rich plasma was isolated by centrifugation at 170 g for 14 minutes.
# The ability of the compounds of the current invention to inhibit platelet aggregation induced by gamma-thrombin was tested in a 96-well microplate aggregation assay format. Briefly, PRP or washed platelet suspension (100 μl) was pre-incubated for 5 minutes at room temperature with varying concentrations of compounds. Aggregation was initiated by ˜10-50 nM gamma thrombin (Haematologic Technologies, Essex Junction, Vt.), which was titrated daily to achieve 80% platelet aggregation. Refludan at 1 U/mL (Berlex, Montville, N.J.) was added to the gamma thrombin sample to prevent PAR1 activation induced by residual alpha-thrombin contamination. The plate was then placed into a 37° C. Molecular Devices (Sunnyvale, Calif.) SPECTRAMAX® Plus Plate Reader. […] Data was collected with SOFTMAX® 4.71 software. The plate also included an untreated control sample which served as ODmax, while buffer containing no platelets was the ODmin. Platelet aggregation was determined by subtracting the ODmax from the ODmin for the 100% aggregation value. In experimental samples, the observed transmission was subtracted from the minimum value and then compared to the 100% aggregation value to determine the percentage aggregation. IC50 values are determined using Excel Fit software.
# As indicated above, the PRP assay, an in vitro assay, measures the PAR4 antagonist activity of compounds tested as described in Example C.
# PAR4 [2] = biological target: T1, PAR4; assay: FLIPR assay in PAR4-expressing HEK293 cells (PAR4 antagonist activity, calcium mobilization); type: cell-based; details: FLIPR assay as described in Example A
# Procedure, shortened: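 HEK293 cells stably expressing human PAR4 (also endogenous PAR1) in HBSS/10 mM HEPES, 0.67% DMSO final. Compound added and read for agonist activity, then 30 min room temperature before PAR4 agonist peptide; intracellular calcium mobilization monitored by FDSS/FLIPR.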
# T1 sequence (Q96RI0 18-385): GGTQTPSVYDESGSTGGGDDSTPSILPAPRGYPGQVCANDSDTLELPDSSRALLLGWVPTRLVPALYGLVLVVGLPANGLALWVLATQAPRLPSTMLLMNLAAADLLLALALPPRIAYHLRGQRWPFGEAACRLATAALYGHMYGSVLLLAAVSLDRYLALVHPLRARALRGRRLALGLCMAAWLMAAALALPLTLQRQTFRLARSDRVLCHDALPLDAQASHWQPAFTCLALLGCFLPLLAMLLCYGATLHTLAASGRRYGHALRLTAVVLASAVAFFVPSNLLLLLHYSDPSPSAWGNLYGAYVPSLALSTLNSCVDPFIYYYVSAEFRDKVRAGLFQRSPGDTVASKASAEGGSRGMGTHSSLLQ
SMILES,IC50 (PAR4 [1]) [nM],IC50 (PAR4 [2]) [nM]
COc1cc(OCc2cccc(OCc3cc(OC(C)C)cc(OC(C)C)c3)c2)c2cc(-c3cn4nc(OC)sc4n3)oc2c1 [Example 371],6910,7.56
COc1cc(OCc2ccc(F)cc2)c2cc(-c3cn4nc(SC)sc4n3)oc2c1 [Example 301],2960,23
COc1cc(OCc2cccc(OCc3ccccc3F)c2)c2cc(-c3cn4nc(OC)sc4n3)oc2c1 [Example 318],36.5,1.92
COc1cc(OC)c2c(C)c(-c3cn4nc(OC)sc4n3)oc2c1 [Example 72],2330,3.91
COc1cc(OCc2cccc(OCc3ccccc3)c2)c2cc(-c3cn4nc([C@H](C)F)sc4n3)oc2c1 [Example 407],462,1.12
"COc1nn2cc(-c3cc4ccc(OC)c(OC)c4o3)nc2s1 [Example 10, 6-(6,7-Dimethoxybenzofuran-2-yl)-2-methoxyimidazo[2,1-b][1,3,4]thiadiazole]",> 30000,1800
CCc1nn2cc(-c3nc4cc(F)c(F)cc4o3)nc2s1 [Example 38],> 30000,66.6
COc1cc(OCc2ccc(F)cc2)c2cc(-c3cn4nc(C(C)(F)F)sc4n3)oc2c1 [Example 304],> 30000,55.6
COc1cc(OCc2cccc(OCc3cc(F)cc(C(F)(F)F)c3)c2)c2cc(-c3cn4nc(OC)sc4n3)oc2c1 [Example 356],109,1.66
COc1cc(OCc2cccc(OCc3cc(Cl)cc(Cl)c3)c2)c2cc(-c3cn4nc(OC)sc4n3)oc2c1 [Example 376],677,7.27
COc1cc(OCc2cccc(OCc3ccc(OC(F)(F)F)cc3)c2)c2cc(-c3cn4nc(OC)sc4n3)oc2c1 [Example 394],616,3.68
COc1cc(OCc2cccc(OCc3cccc(C(F)(F)F)c3F)c2)c2cc(-c3cn4nc(OC)sc4n3)oc2c1 [Example 316],93.3,4.17
CSc1nn2cc(-c3nc4c(OC(C)C)cccc4o3)nc2s1 [Example 159],> 30000,28.4
COc1ccc(Br)c2cc(-c3cn4nc(SC)sc4n3)oc12 [Example 282],5630,49.6
CCC(C)(C)c1ccc2oc(-c3cn4nc(SC)sc4n3)nc2c1 [Example 131],> 30000,107
COc1nn2cc(-c3nc4c(C)cccc4o3)nc2s1 [Example 129],> 30000,32
COc1cc(OCc2cccc(OCc3cccc(OCc4ccccc4)c3)c2)c2cc(-c3cn4nc(OC)sc4n3)oc2c1 [Example 383],594,8.68
CSc1nn2cc(-c3nc4c(OCc5cccc(OCc6ccccc6)c5)cccc4o3)nc2s1 [Example 173],5280,39.4
COc1nn2cc(-c3cc4c(F)cc(OCc5cccc(OCc6ccccc6)c5)cc4o3)nc2s1 [Example 428],73.2,4.81
COc1cc(OCc2cccc(OCc3cccc(OC)c3OC)c2)c2cc(-c3cn4nc(OC)sc4n3)oc2c1 [Example 353],10.5,2.25
COc1cc(OCc2cccc(OCc3cccc(C)c3)c2)c2cc(-c3cn4nc(OC)sc4n3)oc2c1 [Example 386],55,1.77
COc1cc(OCc2cccc(OCc3cccnc3)c2)c2cc(-c3cn4nc(OC)sc4n3)oc2c1 [Example 398],66.2,2.14
COc1cc(OCc2cccc(OCc3ccc(F)cc3)c2)c2cc(-c3cn4nc(OC)sc4n3)oc2c1 [Example 346],147,1.68
COc1nn2cc(-c3cc4c(OCc5ccccc5)cc(OCc5ccccc5)cc4o3)nc2s1 [Example 255],> 30000,113
COc1cc(OCc2cccc(OCc3ccccc3CCc3ccccc3)c2)c2cc(-c3cn4nc(OC)sc4n3)oc2c1 [Example 364],5820,10.5
Brc1nn2cc(-c3cc4ccccc4o3)nc2s1 [Example 68],16700,55.3
